Test results reported in US8609658B2, “N,N-dialkylalkylenyl esters, compositions thereof, and methods for use thereof” (Allergan, Inc., priority 2011, dated 2013).

Experiment: Aqueous stability in formulation vehicle (% substrate remaining)
Format: physicochemical
Conditions: 0.0005% w/w (5 ppm) compound in aqueous formulation vehicle, pH 6

Row | % Substrate Remaining (7 days/25° C.) [%] | % Substrate Remaining (7 days/40° C.) [%] | % Substrate Remaining (28 days/25° C.) [%] | SMILES
1 | 101.2 | 92 | 94.4 | CCN(CC)CCCC(C)OC(=O)COc1cccc(NC(=O)c2cc(-c3cccc(F)c3)ccc2F)c1 (stereo not drawn)
2 | 95.5 | 49.2 | 82.6 | CC[N+](C)(CC)CCCOC(=O)COc1cccc(NC(=O)c2cc(-c3cccc(F)c3)ccc2F)c1
3 | 92 | 78.8 | 78 | CN(C)c1ccc(OC(=O)COc2cccc(NC(=O)c3cc(-c4cccc(F)c4)ccc3F)c2)cc1
4 | 61.5 | 18 | 12 | O=C(COc1cccc(NC(=O)c2cc(-c3cccc(F)c3)ccc2F)c1)Oc1ccc(CN2CCOCC2)cc1
